# Laboratory results taken from US8147892B2, “Kokumi flavour compounds and use” (Givaudan SA, priority 2005, dated 2012).
# “Also recorded” adds a separate entry of the source.
# Key:
# [1] = system: sensory panel; test: Sensory triangle test in chicken broth (kokumi intensity, taste profile); conditions: for kokumi taste (found or not): tested as described in Example 1 (chicken broth), concentration not given; for Sensory descriptors / effect on mouthfulness and complexity of the taste profile / Kokumi intensity (0-5): chicken broth; for Sensory descriptors / Kokumi intensity (0-5): pH 6.5; for Kokumi intensity (0-5): scale 0 to 5 (5 most intensive), negative control 2
# Description: (§1) Unless otherwise indicated, all sensory tests are triangle tests and are performed according to the guidelines in “Amtliche Sammlung von Untersuchungsverfahren nach §35 LMBG (Lebensmittel-und Bedarfsgegenständegesetz)”; L 00.90 7, Untersuchung von Lebensmitteln, Sensorische Prüfverfahren, Dreiecksprüfung (Übemahme der gleichnahmigen Deutschen Norm DIN ISO 4120, Ausgabe January 1995), as follows:
# The sensory panel is trained to evaluate the taste of aqueous solutions (4 ml each) of the following standard taste compounds by using a triangle test as described in the literature (Wieser and Belitz, Z. Lebensm. Unters. Forsch., 1975, 159, 65-72): sucrose (40 mmol/L) for sweet taste; citric acid (5 mmol/L) for sour taste; NaCl (12 mmol/L salty taste; caffeine (2 mmol/L) for bitter taste; and monosodium glutamate (MSG; 6 mmol/L) for umami taste. For kokumi taste, a solution of glutathione (10 mmol/L) in diluted chicken broth concentrate (Goumet Bouillon Huhn, Maggi, Singen, Germany; 3 g/100 g bottled water (Evian®)) is prepared and compared to the taste of chicken broth with no glutathione added.
# (§2) All sensory analyses are performed in a sensory panel room at 22-25° C. over three different sessions by a trained panel of 8 to 10 individuals.
# (§3) For recording the taste profiles, samples are prepared as indicated in the examples below. Taste profiles of samples are determined in a triangle test in three different sessions. Panellists refrain from eating or drinking for at least 1 hour prior to the session. At the start of the session and before each trial, the subject rinsed with water and expectorated. The participants receive a set of two blanks and one taste sample. Liquid samples are swirled around in the mouth briefly and expectorated. Solid samples are chewed for 20 seconds and then expectorated. […] Each sample with additive is compared to two reference samples without additives. Kokumi intensity is rated from 0-5 according to a scale from 0 to 5 (with 5 most intensive). The additive is added to a consumable and the sample is homogenised. The samples are presented to the sensory panel directly after homogenisation. The sensory panel included 8 trained individuals with exception of example 2, here the panel consists of 10 trained individuals.
# Chicken Broth is prepared by dilution of 3 g chicken broth concentrate (Gourmet Bouillon Huhn; Maggi, Singen, Germany) with 100 ml water (Evian). Additives are added as specified in table below.
# The pH-value of all samples is adjusted to 6.5 using formic acid (0.1 moVL) or sodium hydroxide (0.1 mol/L).
# For each sample, kokumi intensity is rated and panelists are asked to describe sensory characteristics.
# Compounds of formula I as listed in the table below are tested in chicken broth (prepared as described in example 1) and compared to hGSH.
# [2] = system: sensory panel; test: Sensory triangle test in ketchup; conditions: 2500 ppm; for Test results (sensory description vs reference): ketchup (Kraft)
# Description: as §1, §2, §3
# Glutathione (GSH) and homoglutathione (hGSH) are added to ketchup (Kraft) in a concentration of 2500 ppm.
# [3] = system: sensory panel; test: Sensory triangle test in tomato juice; conditions: for Test results (sensory description vs reference): listed as γ-Glu-Cys-β-Ala
# Description: as §1, §2, §3
# Glutathione and homoglutathione are added to tomato juice (Albi, Germany) in the concentrations indicated below.
# [4] = system: sensory panel; test: Sensory triangle test in cream cheese; conditions: 1000 ppm
# Description: The sensory panel included 8 trained individuals with exception of example 2, here the panel consists of 10 trained individuals.
# The mixture is stirred until homogeneous.
smiles,measurement,setting,value
C[C@H](N)C(=O)O [Ala],kokumi taste (found or not),[1],not to have a kokumi taste
NC(=O)C[C@H](N)C(=O)O [Asn],kokumi taste (found or not),[1],not to have a kokumi taste
N[C@@H](CC(=O)O)C(=O)O [Asp],kokumi taste (found or not),[1],not to have a kokumi taste
N[C@@H](CSSC[C@H](N)C(=O)O)C(=O)O [Cys-S—S-Cys],kokumi taste (found or not),[1],not to have a kokumi taste
N[C@@H](CS)C(=O)O [Cys],kokumi taste (found or not),[1],not to have a kokumi taste
"N[C@@H](CCC(=O)N[C@@H](CS)C(=O)NCC(=O)O)C(=O)O [GSH, Gamma-L-glutamyl-L-cysteinyl-glycine]",Test results (sensory description vs reference),[2],the observed effect is lower
NC(=O)CC[C@H](N)C(=O)O [Gln],kokumi taste (found or not),[1],not to have a kokumi taste
N[C@@H](CCC(=O)O)C(=O)O [Glu],kokumi taste (found or not),[1],not to have a kokumi taste
"N[C@@H](CCC(=O)O)C(=O)[O-].[Na+] [MSG, mono sodium glutamate]",Sensory descriptors,[1]; additive 10 mmol/L,higher umami (taste of MSG) intensity; also recorded: Increased umami taste
same,effect on mouthfulness and complexity of the taste profile,[1]; positive control 10 mmol/L,no effect on mouthfulness and complexity
[Cl-].[Na+] [NaCl],Sensory descriptors,[1]; additive 30 mmol/L,increased salt taste
same,Sensory descriptors,"[1]; additive 30 mmol/L, listed as NaCI",more salty than the negative control
same,Kokumi intensity (0-5),[1]; additive 30 mmol/L,2
same,effect on mouthfulness and complexity of the taste profile,[1]; positive control 30 mmol/L,no effect on mouthfulness and complexity
"N[C@@H](CCC(=O)N[C@@H](CS)C(=O)NCCC(=O)O)C(=O)O [hGSH, Gamma-L-glutamyl-L-cysteinyl-beta-alanine]",panelists preferring the sample,[3]; 250 ppm,7 out of 8 panelists
same,Test results (sensory description vs reference),[3]; 250 ppm,more intensive and well-balanced kokumi taste
same,Test results (sensory description vs reference),[3]; 5000 ppm,even more pronounced kokumi sensation compared to an isoconcentrated glutathione sample
same,Test results (sensory description vs reference),[2],"more meaty, bouillon-like, and intensified overall taste"
same,"panelists indicating more meaty, bouillon-like, and intensified overall taste",[2]; ketchup,7 out of 8 panelists
same,Test results (sensory description vs reference),"[4]; cream cheese (Philadelphia, Kraft)","more mouthfulness, richness, and kokumi-like complexity"
same,panelists finding the sample different from the reference sample and preferred,[4]; cream cheese,9 out of a panel of 10
same,Sensory descriptors,[1]; additive 10 mmol/L,"increases the mouthfulness, complexity, and long lasting taste sensation"
same,Kokumi intensity (0-5),[1]; additive 10 mmol/L,4.0
NCCC(=O)O [β-Ala],kokumi taste (found or not),[1],not to have a kokumi taste
